In US20230002387A1, “2-AMINO-S6-SUBSTITUTED THIOPURINE COMPOUNDS AS INHIBITORS OF THE ENPP1 PROTEIN” (ATEN PORUS LIFESCIENCES PVT. LTD., priority 2019, published 2023):

target: T1, ENPP1 (Homo sapiens, UniProt P22413); test: Capillary electrophoresis-based NPP assay with ATP as a substrate (ENPP1 inhibition, Ki); assay type: biochemical; settings: bin of Table 2; Ki from IC50 by Cheng-Prusoff, 400 μM ATP
T1 sequence (P22413 1-925): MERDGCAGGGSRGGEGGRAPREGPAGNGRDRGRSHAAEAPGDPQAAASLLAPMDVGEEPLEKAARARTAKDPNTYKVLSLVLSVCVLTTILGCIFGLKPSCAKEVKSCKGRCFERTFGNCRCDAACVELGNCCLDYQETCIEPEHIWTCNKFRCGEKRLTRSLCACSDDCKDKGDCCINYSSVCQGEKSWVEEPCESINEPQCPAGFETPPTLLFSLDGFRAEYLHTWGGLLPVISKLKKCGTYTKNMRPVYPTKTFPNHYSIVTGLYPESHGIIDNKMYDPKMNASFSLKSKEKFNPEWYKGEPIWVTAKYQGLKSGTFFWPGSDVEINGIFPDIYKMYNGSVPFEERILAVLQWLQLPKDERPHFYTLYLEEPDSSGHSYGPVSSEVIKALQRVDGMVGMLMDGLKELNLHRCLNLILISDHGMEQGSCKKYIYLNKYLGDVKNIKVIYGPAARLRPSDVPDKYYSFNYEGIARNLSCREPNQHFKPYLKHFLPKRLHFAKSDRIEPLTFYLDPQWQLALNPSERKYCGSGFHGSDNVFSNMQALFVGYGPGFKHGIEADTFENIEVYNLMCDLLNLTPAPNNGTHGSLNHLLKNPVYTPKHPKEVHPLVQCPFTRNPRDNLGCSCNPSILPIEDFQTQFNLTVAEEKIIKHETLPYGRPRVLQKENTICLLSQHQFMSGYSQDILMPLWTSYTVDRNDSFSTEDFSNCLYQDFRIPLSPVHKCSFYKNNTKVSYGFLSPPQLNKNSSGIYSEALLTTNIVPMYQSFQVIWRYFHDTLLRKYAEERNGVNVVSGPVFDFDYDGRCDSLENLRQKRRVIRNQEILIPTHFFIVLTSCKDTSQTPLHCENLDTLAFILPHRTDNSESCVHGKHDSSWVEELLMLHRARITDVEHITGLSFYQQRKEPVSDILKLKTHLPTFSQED
Procedure: Here, a Capillary Electrophoresis based method was used to determine the IC50 values for ENPP1 Inhibitors for ENNP1 protein.
The inhibitors synthesized were assessed for ENPP1 inhibitory potency against the natural substrate ATP. The enzyme inhibition assays were performed in 10 mM 2-(N-cyclohexylamino)-ethanesulfonic acid (CHES) buffer (pH 10.0) including 1 mM MgCl2, 2 mM CaCl2), and 400 μM of ATP, with different inhibitor concentrations. The reaction mixture was incubated with 20 ng human NPP1 at 37° C. for 30 min in a final volume of 100 μL, and the reactions were stopped by heating at 90° C. for 3 min. Finally, the reaction mixtures were directly measured by capillary electrophoresis (CE). The CE instrumentation and operating conditions were as follows: P/ACE MDQ capillary electrophoresis system (Beckman Instruments, Fullerton, Calif., USA) with a DAD detection system, polyacrylamide-coated capillaries of 40 cm effective length×[…] (id) obtained from CS Chromatographie GmbH (Langerwehe, Germany), 50 mM phosphate buffer (pH 6.5) as running buffer, electrokinetic injection (−6 kV, 60 s), separation voltage of −15 kV. The amounts of AMP produced were measured at 260 nm. Data collection and peak area analysis were performed by 32 Karat software obtained from Beckman Coulter (Fullerton, Calif., USA).
The IC50 values of test compounds were calculated by plotting data in the program Prism 5.0, and the Ki values were calculated from the IC50 values with the Cheng-Prusoff equation (Tables 2-4).

Row | Compound | Ki [nM]
1 | COc1cc(NC(=O)[C@H](CC(C)C)Sc2nc(N)nc3nc[nH]c23)ccc1O [Compound 272] | ≤ 100
2 | COc1ccc(NC(=O)CSc2nc(N)nc3nc[nH]c23)cc1OC [Compound 46, 2-((2-amino-7H-purin-6-yl)thio)-N-(3,4-dimethoxyphenyl)acetamide] | ≤ 100
3 | COc1cc(NC(=O)[C@H](Sc2nc(N)nc3nc[nH]c23)c2ccccc2)ccc1O [Compound 329] | ≤ 100
4 | COc1nc(NC(=O)C2(Sc3nc(N)nc4nc[nH]c34)CCC2)ncc1Br [Compound 558] | ≤ 100
5 | Nc1nc(SCC(=O)Nc2ccc3c(c2)OCO3)c2[nH]cnc2n1 [Compound 78] | ≤ 100
6 | Nc1nc(SCC(=S)Nc2ccc(O)c(C(=O)O)c2)c2[nH]cnc2n1 [Compound 408] | ≤ 100
7 | COc1nc(NC(=O)[C@H](Cc2ccccc2)Sc2nc(N)nc3nc[nH]c23)ncc1Br [Compound 555] | ≤ 100
8 | CC[C@H](Sc1nc(N)nc2nc[nH]c12)C(=O)Nc1ncc(Cl)c(OC)n1 [Compound 609] | ≤ 100
9 | CCOc1nc(NC(=O)[C@@H](CC)Sc2nc(N)nc3nc[nH]c23)ncc1Br [Compound 712] | ≤ 100
10 | COc1nc(NC(=O)[C@@H](Sc2nc(N)nc3nc[nH]c23)C(C)C)ncc1Br [Compound 515] | ≤ 100
11 | CCOc1nc(NC(=O)[C@H](CC)Sc2nc(N)nc3nc[nH]c23)ncc1Br [Compound 678] | ≤ 100
12 | COc1ccc(NC(=O)CSc2nc(N)nc3nc[nH]c23)nc1OC [Compound 160] | ≤ 100
13 | COc1ccc(NC(=S)CSc2nc(N)nc3nc[nH]c23)cc1OC [Compound 355] | ≤ 100
14 | CC[C@@H](Sc1nc(N)nc2nc[nH]c12)C(=O)Nc1ncc(Cl)c(OC)n1 [Compound 608] | ≤ 100
15 | COc1nc(NC(=O)[C@H](Sc2nc(N)nc3nc[nH]c23)C(C)C)ncc1Br [Compound 514] | ≤ 100
16 | CCOc1nc(NC(=O)[C@@H](Sc2nc(N)nc3nc[nH]c23)C(C)C)ncc1F [Compound 679] | ≤ 100
17 | CCOc1nc(NC(=O)[C@H](CC)Sc2nc(N)nc3nc[nH]c23)ncc1Cl [Compound 677] | ≤ 100
18 | Nc1nc(SCC(=O)Nc2ccc(Cl)c(O)c2)c2[nH]cnc2n1 [Compound 207] | ≤ 100
19 | CC(C)Oc1ccnc(NC(=O)C(C)(C)Sc2nc(N)nc3nc[nH]c23)n1 [Compound 534] | ≤ 100
20 | CC[C@H](Sc1nc(N)nc2nc[nH]c12)C(=O)Nc1ccc(OC)c(OC)n1 [Compound 472] | ≤ 100
21 | COc1ccnc(NC(=O)[C@H](Cc2ccccc2)Sc2nc(N)nc3nc[nH]c23)n1 [Compound 517] | ≤ 100
22 | CC[C@@H](Sc1nc(N)nc2nc[nH]c12)C(=O)Nc1ncc(Br)c(OC)n1 [Compound 508] | ≤ 100
23 | CC[C@H](Sc1nc(N)nc2nc[nH]c12)C(=O)Nc1ncc(Br)c(OC)n1 [Compound 509] | ≤ 100
24 | CC[C@H](Sc1nc(N)nc2nc[nH]c12)C(=O)Nc1nccc(OC)n1 [Compound 435] | ≤ 100
25 | CCOc1nc(NC(=O)[C@@H](Sc2nc(N)nc3nc[nH]c23)C(C)C)ncc1Br [Compound 681] | ≤ 100

Row | Compound | Ki [nM]
26 | COc1ccnc(NC(=O)[C@@H](C)Sc2nc(N)nc3nc[nH]c23)n1 [Compound 486] | ≤ 100
27 | COc1nc(NC(=O)[C@H](Cc2ccccc2)Sc2nc(N)nc3nc[nH]c23)ncc1Cl [Compound 554] | ≤ 100
28 | COc1ccnc(NC(=O)CSc2nc(N)nc3nc[nH]c23)c1 [Compound 109] | ≤ 100
29 | Nc1nc(SCC(=O)Nc2ccc3nccnc3c2)c2[nH]cnc2n1 [Compound 185] | ≤ 100
30 | CC(C)[C@H](Sc1nc(N)nc2nc[nH]c12)C(=O)Nc1ccc(O)c(C(=O)O)c1 [Compound 269] | ≤ 100
31 | CCC(Sc1nc(N)nc2nc[nH]c12)C(=O)Nc1ccc(O)c(C(=O)O)c1 (stereo not shown) [Compound 249] | ≤ 100
32 | COc1ccnc(NC(=O)[C@@H](Cc2ccccc2)Sc2nc(N)nc3nc[nH]c23)n1 [Compound 516] | ≤ 100
33 | COc1ccc(NC(=O)[C@@H](C)Sc2nc(N)nc3nc[nH]c23)nc1OC [Compound 490] | ≤ 100
34 | Nc1nc(S[C@@H](CCc2ccccc2)C(=O)Nc2ccc(O)c(C(=O)O)c2)c2[nH]cnc2n1 [Compound 485] | ≤ 100
35 | COc1ccnc(NC(=O)CSc2nc(N)nc3nc[nH]c23)n1 [Compound 201] | ≤ 100
36 | CC[C@H](Sc1nc(N)nc2nc[nH]c12)C(=O)Nc1ccc(O)c(C(=O)O)c1 [Compound 267] | ≤ 100
37 | COc1ccnc(NC(=O)[C@H](C)Sc2nc(N)nc3nc[nH]c23)n1 [Compound 487] | ≤ 100
38 | COc1ccc(NC(=O)[C@H](C)Sc2nc(N)nc3nc[nH]c23)nc1OC [Compound 491] | ≤ 100
39 | COc1ccc(C(=O)NCCSc2nc(N)nc3nc[nH]c23)cc1OC [Compound 148, N-(2-((2-amino-7H-purin-6-yl)thio)ethyl)-3,4-dimethoxybenzamide] | ≤ 100
40 | COc1nc(NC(=O)[C@@H](Cc2ccccc2)Sc2nc(N)nc3nc[nH]c23)ncc1Cl [Compound 551] | ≤ 100
41 | COc1ccnc(NC(=O)[C@H](CCc2ccccc2)Sc2nc(N)nc3nc[nH]c23)n1 [Compound 506] | ≤ 100
42 | CCOc1nc(NC(=O)[C@H](CC)Sc2nc(N)nc3nc[nH]c23)ncc1F [Compound 673] | ≤ 100
43 | CC[C@@H](Sc1nc(N)nc2nc[nH]c12)C(=O)Nc1nc(Cl)cc(OC)n1 [Compound 496] | ≤ 100
44 | COc1ccnc(NC(=O)[C@@H](Sc2nc(N)nc3nc[nH]c23)C(C)C)n1 [Compound 510] | ≤ 100
45 | Nc1nc(SCC(=O)Nc2ccc(O)c(Br)c2)c2[nH]cnc2n1 [Compound 194] | ≤ 100
46 | CC(C)Oc1nc(NC(=O)C(C)(C)Sc2nc(N)nc3nc[nH]c23)ncc1Br [Compound 543] | ≤ 100
47 | COc1nc(NC(=O)[C@@H](Cc2ccccc2)Sc2nc(N)nc3nc[nH]c23)ncc1Br [Compound 552] | ≤ 100
48 | COc1ccc(NC(=O)CSc2nc(N)nc3nc[nH]c23)cc1Cl [Compound 128] | ≤ 100
49 | COc1cc(NC(=O)[C@@H](Sc2nc(N)nc3nc[nH]c23)C(C)C)ccc1O [Compound 270] | ≤ 100
50 | Nc1nc(SCC(=O)Nc2ccc3ncccc3c2)c2[nH]cnc2n1 [Compound 184] | ≤ 100

same assay, conditions: bin of Table 4; Ki from IC50 by Cheng-Prusoff, 400 μM ATP

Row | Compound | Ki [nM]
51 | Cc1ccc(S(N)(=O)=O)cc1NC(=O)Cn1cnc2ncnc(N)c21 [Compound 30] | ≥ 1000
52 | COc1ccc(NC(=O)CSc2nc(N)nc3nc[nH]c23)cc1 [Compound 107] | ≥ 1000
53 | COc1ccc(NC(=O)Cn2nnc3ncccc32)cc1OC [Compound 35] | ≥ 1000
54 | COc1ccc(CNC(=O)CSc2nc(N)nc3nc[nH]c23)cc1OC [Compound 105] | ≥ 1000
55 | COc1ccc(NC(=O)CSc2ncnc3[nH]cnc23)cc1OC [Compound 45] | ≥ 1000
56 | COc1ccc(NC(=O)CSc2nc(N)nc3nc[nH]c23)cc1C(=O)O [Compound 144] | ≥ 1000
57 | COc1cc2ncc(Nc3cc(S(N)(=O)=O)ccc3C)nc2cc1OC [Compound 8] | ≥ 1000
58 | Nc1nc(SCC(=O)NCc2ccccc2)c2[nH]cnc2n1 [Compound 103] | ≥ 1000
59 | COc1ccc(NC(=O)Cn2cnc3cnccc32)cc1OC [Compound 11] | ≥ 1000
60 | COc1ccc(NC(=O)CSc2nc(N)nc3ncn(C)c23)cc1OC [Compound 98] | ≥ 1000
61 | COc1ccc(NC(=O)Cn2cnc3ncnc(N)c32)cc1OC [Compound 18] | ≥ 1000
62 | CC(C)(Sc1nc(N)nc2nc[nH]c12)C(=O)Nc1ccc(O)c(C(=O)O)c1 [Compound 251] | ≥ 1000
63 | COc1ccc(NC(=O)CSc2nc3ccncc3o2)cc1OC [Compound 22] | ≥ 1000
64 | Nc1nc(SCC(=O)Nc2ccc3c(c2)OC(F)(F)O3)c2[nH]cnc2n1 [Compound 90] | ≥ 1000
